The text below walks through data of patent publication US11661431B2, “Thienopyrrole compounds” (Gilead Sciences, Inc., priority 2021, dated 2023).

Read-outs that look alike come from different tables or passages of the source.

Assay [1] concerns the target TLR7 (Homo sapiens (Human), UniProt Q9NYK1). As to the kind of experiment: TLR7 human peripheral blood mononuclear cell (PBMC) cell-based assay (GS-986 as agonist; IL-6 and IFNα readout). Particulars: TLR7 agonist GS-986 at 400 nM, 6 hours, antagonist potency. An outline of the steps: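 IL-6 and IFNα released into supernatant were quantified by electrochemiluminescence immunoassay. Before that, human PBMCs at 100,000 per well received a 10-point antagonist titration for 1 h, then TLR7 agonist for 6 more hours, all at 37 °C, 5% CO2.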

In assay [2] the target is TLR8 (Homo sapiens (Human), UniProt Q9NR97). As to the kind of experiment: TLR8 human peripheral blood mononuclear cell (PBMC) cell-based assay (Compound A as agonist; TNFα and IL12p40 readout). Particulars: TLR8 agonist Compound A at 800 nM, 6 hours, antagonist potency.
Sequence of TLR8 (Q9NR97 27-1041): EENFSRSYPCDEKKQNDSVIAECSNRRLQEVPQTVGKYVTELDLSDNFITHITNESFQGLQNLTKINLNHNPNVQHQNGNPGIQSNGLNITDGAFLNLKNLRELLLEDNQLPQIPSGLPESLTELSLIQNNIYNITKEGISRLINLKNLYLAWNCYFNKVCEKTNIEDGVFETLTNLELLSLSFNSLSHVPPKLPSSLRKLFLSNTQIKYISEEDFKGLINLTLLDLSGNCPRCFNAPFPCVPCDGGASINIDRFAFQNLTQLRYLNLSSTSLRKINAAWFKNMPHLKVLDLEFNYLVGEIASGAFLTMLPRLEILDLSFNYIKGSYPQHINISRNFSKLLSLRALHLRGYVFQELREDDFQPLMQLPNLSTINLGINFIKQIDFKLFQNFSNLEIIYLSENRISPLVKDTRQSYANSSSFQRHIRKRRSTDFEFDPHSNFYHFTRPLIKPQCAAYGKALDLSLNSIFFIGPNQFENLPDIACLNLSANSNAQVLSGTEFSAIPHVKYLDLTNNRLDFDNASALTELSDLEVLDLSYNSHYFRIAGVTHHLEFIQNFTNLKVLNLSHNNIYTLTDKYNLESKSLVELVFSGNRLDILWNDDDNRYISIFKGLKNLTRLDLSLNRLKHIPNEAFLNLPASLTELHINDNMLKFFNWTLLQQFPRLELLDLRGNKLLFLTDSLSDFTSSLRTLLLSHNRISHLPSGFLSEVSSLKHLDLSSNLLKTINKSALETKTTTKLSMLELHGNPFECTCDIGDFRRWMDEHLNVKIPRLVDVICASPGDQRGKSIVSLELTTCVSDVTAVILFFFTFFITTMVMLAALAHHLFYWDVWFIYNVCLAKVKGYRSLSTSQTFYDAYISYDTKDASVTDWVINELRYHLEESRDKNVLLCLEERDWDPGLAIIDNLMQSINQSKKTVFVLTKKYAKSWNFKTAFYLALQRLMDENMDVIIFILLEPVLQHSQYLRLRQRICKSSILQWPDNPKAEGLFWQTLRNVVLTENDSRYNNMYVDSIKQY
The mark [3] stands for this setting: human PBMCs, read-out: TLR-7 EC50.
[4] abbreviates: human PBMCs, read-out: TLR-8 EC50.

Sequence of TLR7 (Q9NYK1 27-1049): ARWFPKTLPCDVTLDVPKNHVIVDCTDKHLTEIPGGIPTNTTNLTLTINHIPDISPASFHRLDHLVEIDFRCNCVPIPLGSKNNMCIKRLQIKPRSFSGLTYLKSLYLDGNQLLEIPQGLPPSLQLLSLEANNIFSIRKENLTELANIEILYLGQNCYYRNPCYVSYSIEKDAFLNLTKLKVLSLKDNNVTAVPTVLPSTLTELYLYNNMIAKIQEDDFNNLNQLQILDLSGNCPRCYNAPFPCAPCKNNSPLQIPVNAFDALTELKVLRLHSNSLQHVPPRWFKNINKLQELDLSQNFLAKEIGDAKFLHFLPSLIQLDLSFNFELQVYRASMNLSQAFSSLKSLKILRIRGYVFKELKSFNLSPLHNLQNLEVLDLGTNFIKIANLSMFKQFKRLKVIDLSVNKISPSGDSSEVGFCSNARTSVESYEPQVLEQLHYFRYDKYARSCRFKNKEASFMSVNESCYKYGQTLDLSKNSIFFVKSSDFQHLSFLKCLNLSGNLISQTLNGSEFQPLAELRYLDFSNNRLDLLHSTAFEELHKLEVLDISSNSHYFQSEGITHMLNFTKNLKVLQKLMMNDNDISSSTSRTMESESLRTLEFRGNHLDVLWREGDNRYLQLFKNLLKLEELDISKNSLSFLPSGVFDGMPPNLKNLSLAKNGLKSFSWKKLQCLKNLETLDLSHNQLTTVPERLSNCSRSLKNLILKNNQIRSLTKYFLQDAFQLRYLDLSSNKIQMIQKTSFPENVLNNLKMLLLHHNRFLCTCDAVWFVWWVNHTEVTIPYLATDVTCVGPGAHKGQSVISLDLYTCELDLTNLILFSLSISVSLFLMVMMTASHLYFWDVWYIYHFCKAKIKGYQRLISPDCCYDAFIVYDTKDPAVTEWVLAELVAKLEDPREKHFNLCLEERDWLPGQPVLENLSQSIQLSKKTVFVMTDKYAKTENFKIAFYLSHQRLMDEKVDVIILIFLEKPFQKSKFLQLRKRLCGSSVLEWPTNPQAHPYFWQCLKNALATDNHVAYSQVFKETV

Turning to `CCc1c(C2CCN(C(=O)[C@@H]3COCCN3)CC2)sc2[nH]c(-c3cc(C)c4ncnn4c3)c(C(C)C)c12` [Example 207], the EC50 is 0.19 nM in assay [1] (setting [3]) and 32.2 nM in assay [2] (setting [4]).

For `CCc1c(C2CCN(C(=O)[C@H]3COCCN3)CC2)sc2[nH]c(-c3cc(C)c4ncnn4c3)c(C(C)C)c12` [Example 208], the EC50 was found to be 0.15 nM in assay [1] (setting [3]) and 34.6 nM in assay [2] (setting [4]).

Take `Cc1c(C2CC23CCNCC3)sc2[nH]c(-c3cc(C)c4ncnn4c3)c(C(C)C)c12` (stereo not shown) [Example 209]: the EC50 in assay [1] (setting [3]) was found to be 0.94 nM; in assay [2] (setting [4]) it was 10.7 nM.

Consider `Cc1c(CC2CCN(CC(N)=O)CC2)sc2[nH]c(-c3cc(C)c4ncnn4c3)c(C(C)C)c12` [Example 210], for which the EC50 is 2.32 nM in assay [1] (setting [3]) and 10 nM in assay [2] (setting [4]).

`Cc1c(C2CC23CCN(CC(N)=O)CC3)sc2[nH]c(-c3cc(C)c4ncnn4c3)c(C(C)C)c12` (stereo not shown) [Example 211]: the EC50 in assay [1] (setting [3]) worked out at 5.08 nM; in assay [2] (setting [4]), 30.9 nM.

Take `Cc1c(-c2[nH]c3sc(C45CCN(CCS(C)(=O)=O)CC4C5)c(C)c3c2C(C)C)cn2ncnc2c1C` (stereo not shown) [Example 217]: the figures for the EC50 in assay [1] (setting [3]) and in assay [2] (setting [4]) were 1.27 nM and 78.6 nM, respectively.

For the molecule `Cc1c(-c2[nH]c3sc([C@@H]4C[C@@H]5C[C@H]4CN5CCS(C)(=O)=O)cc3c2C(C)C)cn2ncnc2c1C` [Example 218], the EC50 in assay [1] (setting [3]) worked out at 0.45 nM; in assay [2] (setting [4]), 0.88 nM.

Consider `Cc1c(-c2[nH]c3sc(C4CCNCC4)cc3c2C(C)C)cn2ncnc2c1C` [Example 219], for which the results for the EC50 in assay [1] (setting [3]) and in assay [2] (setting [4]) were 0.26 nM and 3.01 nM, respectively.

Consider `Cc1c(-c2[nH]c3sc([C@@H]4C[C@@H]5C[C@H]4CN5)cc3c2C(C)C)cn2ncnc2c1C` [Example 220], for which the EC50 was 0.11 nM in assay [1] (setting [3]) and 0.64 nM in assay [2] (setting [4]).

Consider `Cc1c(-c2[nH]c3sc(-c4cccc(C5CCNCC5)c4)c(C)c3c2C(C)C)cn2ncnc2c1C` [Example 222], for which the EC50 in assay [1] (setting [3]) was 8.47 nM; in assay [2] (setting [4]), 79.3 nM.

For the molecule `Cc1c(-c2[nH]c3sc(-c4cccc(C5CCN(CC(N)=O)CC5)c4)c(C)c3c2C(C)C)cn2ncnc2c1C` [Example 223], the EC50 in assay [1] (setting [3]) was determined as 15.5 nM; in assay [2] (setting [4]) it was 66.5 nM.

With `Cc1c(-c2[nH]c3sc(-c4cnc(C5CCNCC5)nc4)c(C)c3c2C(C)C)cn2ncnc2c1C` [Example 224], the EC50 turned out to be 1.24 nM in assay [1] (setting [3]) and 3.68 nM in assay [2] (setting [4]).

Consider `Cc1c(-c2[nH]c3sc(C4C[C@H]5CC[C@@H]4N5)c(C)c3c2C(C)C)cn2ncnc2c1C` (stereo partly shown) [Example 225], for which the EC50 in assay [1] (TLR-7 EC50, human PBMCs) came to 0.47 nM; in assay [2] (TLR-8 EC50, human PBMCs) it was 6.12 nM.

For `Cc1c(-c2[nH]c3sc(-c4cnc(C5CCN(CC(N)=O)CC5)nc4)c(C)c3c2C(C)C)cn2ncnc2c1C` [Example 226], the results for the EC50 in assay [1] (setting [3]) and in assay [2] (setting [4]) were 4.14 nM and 1 nM, respectively.

`Cc1c(-c2[nH]c3sc(C4C[C@H]5CC[C@@H]4N5CC(N)=O)c(C)c3c2C(C)C)cn2ncnc2c1C` (stereo partly shown) [Example 227]: the EC50 in assay [1] (TLR-7 EC50, human PBMCs) came to 5.07 nM; in assay [2] (TLR-8 EC50, human PBMCs) it was 15.5 nM.

With `Cc1c(-c2[nH]c3sc(C4CCC45CNC5)c(C)c3c2C(C)C)cn2ncnc2c1C` (stereo not shown) [Example 228, 5-(7,8-dimethyl-[1,2,4]triazolo[1,5-a]pyridin-6-yl)-4-isopropyl-3-methyl-2-(2-azaspiro[3.3]heptan-5-yl)-6H-thieno[2,3-b]pyrrole], the EC50 worked out at 8.77 nM in assay [1] (setting [3]) and 76.2 nM in assay [2] (setting [4]).

In the case of `Cc1c(C2CCN(CC(N)=O)CC2)sc2[nH]c(-c3ccc(C#N)c4ncccc34)c(C(C)C)c12` [Example 230], the EC50 in assay [1] (setting [3]) worked out at 0.81 nM; in assay [2] (setting [4]) it was 14 nM.

Take `Cc1c(C2CCN(CC(N)=O)CC2)sc2[nH]c(C3=NC(C)c4ncccc43)c(C(C)C)c12` (stereo not shown) [Example 232]: the values for the EC50 in assay [1] (setting [3]) and in assay [2] (setting [4]) were 0.83 nM and 18.8 nM, respectively.

Take `Cc1cc(-c2[nH]c3sc(C4CCN(CC(N)=O)CC4)c(C)c3c2C(C)C)cn(C)c1=O` [Example 234]: the results for the EC50 in assay [1] (setting [3]) and in assay [2] (setting [4]) were 4.25 nM and 10.6 nM, respectively.

Consider `Cc1cc2ncnn2cc1-c1[nH]c2sc(C3CCN(CC(N)=O)CC3)c(C)c2c1C(C)C` [Example 235], for which the EC50 in assay [1] (setting [3]) came to 10.1 nM; in assay [2] (setting [4]), 48.8 nM.

With `Cc1c(C2CCN(CC(N)=O)CC2)sc2[nH]c(-c3cc(C)c4nnnn4c3)c(C(C)C)c12` [Example 236], the values for the EC50 in assay [1] (setting [3]) and in assay [2] (setting [4]) were 1.94 nM and 21.8 nM, respectively.

For `Cc1c(C2CCN(CC(N)=O)CC2)sc2[nH]c(-c3cc(C)c4nccn4c3)c(C(C)C)c12` [Example 237], the EC50 stood at 0.29 nM in assay [1] (setting [3]) and 69.3 nM in assay [2] (setting [4]).

With `COc1cc(-c2[nH]c3sc(C4CCNCC4)c(C)c3c2C(C)C)cn2ncnc12` [Example 246, 4-isopropyl-5-(8-methoxy-[1,2,4]triazolo[1,5-a]pyridin-6-yl)-3-methyl-2-(piperidin-4-yl)-6H-thieno[2,3-b]pyrrole], the EC50 in assay [1] (setting [3]) worked out at 0.09 nM; in assay [2] (setting [4]), 8.94 nM.

Consider `Cc1c(C2CCNCC2)sc2[nH]c(-c3ccc(C#N)c4ncccc34)c(C(C)C)c12` [Example 247], for which the concentration for a half-maximal effect (EC50) was 0.2 nM in assay [1] (setting [3]) and 13.5 nM in assay [2] (setting [4]).

For the molecule `Cc1c(C2CCNCC2)sc2[nH]c(-c3ccc(C#N)c4nccnc34)c(C(C)C)c12` [Example 248], the figures for the EC50 in assay [1] (setting [3]) and in assay [2] (setting [4]) were 11.5 nM and 106 nM, respectively.

In the case of `Cc1c(C2CCNCC2)sc2[nH]c(-c3cn(C)c4ncccc34)c(C(C)C)c12` [Example 249], the EC50 came to 0.32 nM in assay [1] (setting [3]) and 3.02 nM in assay [2] (setting [4]).

In the case of `Cc1cc(-c2[nH]c3sc(C4CCNCC4)c(C)c3c2C(C)C)cn(C)c1=O` [Example 250], the results for the EC50 in assay [1] (setting [3]) and in assay [2] (setting [4]) were 0.34 nM and 3.59 nM, respectively.

In the case of `Cc1c(C2CCNCC2)sc2[nH]c(-c3cc(C)c4nnnn4c3)c(C(C)C)c12` [Example 251], the EC50 in assay [1] (setting [3]) turned out to be 0.13 nM; in assay [2] (setting [4]), 8.16 nM.

As to `Cc1c(C2CCNCC2)sc2[nH]c(-c3cc(C)c4nccn4c3)c(C(C)C)c12` [Example 252], the EC50 in assay [1] (setting [3]) is 0.07 nM; in assay [2] (setting [4]), 34.2 nM.

With `Cc1c(-c2[nH]c3sc(C4C[C@@H]5C[C@H]4CC5NC4COC4)c(C)c3c2C(C)C)cn2ncnc2c1C` (stereo partly drawn) [Example 253, N-((1S,4S)-5-(5-(7,8-dimethyl-[1,2,4]triazolo[1,5-a]pyridin-6-yl)-4-isopropyl-3-methyl-6H-thieno[2,3-b]pyrrol-2-yl)bicyclo[2.2.1]heptan-2-yl)oxetan-3-amine], the EC50 in assay [1] (setting [3]) worked out at 0.1 nM; in assay [2] (setting [4]) it was 1.06 nM.

Regarding `Cc1c(-c2[nH]c3sc(C4C[C@@H]5C[C@H]4CC5N4CC5(C4)CS(=O)(=O)C5)c(C)c3c2C(C)C)cn2ncnc2c1C` (stereo partly shown) [Example 254], the EC50 came out at 0.38 nM in assay [1] (setting [3]) and 3.64 nM in assay [2] (setting [4]).

`Cc1c(-c2[nH]c3sc(C4C[C@@H]5C[C@H]4CC5N4CCS(=N)(=O)CC4)c(C)c3c2C(C)C)cn2ncnc2c1C` (stereo partly shown) [Example 255]: the EC50 in assay [1] (setting [3]) was 1.22 nM; in assay [2] (setting [4]), 21.4 nM.

`Cc1c(-c2[nH]c3sc(C4C[C@@H]5C[C@H]4CC5N4CCS(=O)(=O)CC4)c(C)c3c2C(C)C)cn2ncnc2c1C` (stereo partly shown) [Example 256]: the figures for the EC50 in assay [1] (setting [3]) and in assay [2] (setting [4]) were 2.31 nM and 29.2 nM, respectively.

As to `Cc1c(-c2[nH]c3sc(C4C[C@@H]5C[C@H]4CC5N4CCNC(=O)C4)c(C)c3c2C(C)C)cn2ncnc2c1C` (stereo partly shown) [Example 257], the EC50 in assay [1] (setting [3]) came to 1.29 nM; in assay [2] (setting [4]), 7.58 nM.

Consider `Cc1cc(-c2[nH]c3sc(C4CCNCC4)c(CO)c3c2C(C)C)cn2ncnc12` [Example 258, (4-isopropyl-5-(8-methyl-[1,2,4]triazolo[1,5-a]pyridin-6-yl)-2-(piperidin-4-yl)-6H-thieno[2,3-b]pyrrol-3-yl)methanol], for which the EC50 in assay [1] (setting [3]) is 0.89 nM; in assay [2] (setting [4]), 13.6 nM.

For the molecule `COCc1c(C2CCNCC2)sc2[nH]c(-c3cc(C)c4ncnn4c3)c(C(C)C)c12` [Example 259, 4-isopropyl-3-(methoxymethyl)-5-(8-methyl-[1,2,4]triazolo[1,5-a]pyridin-6-yl)-2-(piperidin-4-yl)-6H-thieno[2,3-b]pyrrole], the EC50 stood at 0.15 nM in assay [1] (setting [3]) and 3.59 nM in assay [2] (setting [4]).

For the molecule `Cc1cc(-c2[nH]c3sc(C4CCN(C(=O)[C@H]5COCCN5)CC4)c(CO)c3c2C(C)C)cn2ncnc12` [Example 260, (R)-(4-(3-(hydroxymethyl)-4-isopropyl-5-(8-methyl-[1,2,4]triazolo[1,5-a]pyridin-6-yl)-6H-thieno[2,3-b]pyrrol-2-yl)piperidin-1-yl)(morpholin-3-yl)methanone], the EC50 is 0.31 nM in assay [1] (setting [3]) and 27.3 nM in assay [2] (setting [4]).

As for `Cc1c(-c2[nH]c3sc([C@@H]4C[C@@H]5C[C@H]4CN5CC(=O)O)c(C)c3c2C(C)C)cn2ncnc2c1C` [Example 264, 2-((1S,4R,5R)-5-(5-(7,8-dimethyl-[1,2,4]triazolo[1,5-a]pyridin-6-yl)-4 isopropyl-3-methyl-6H-thieno[2,3-b]pyrrol-2-yl)-2-azabicyclo[2.2.1]heptan-2-yl)acetic acid], the EC50 in assay [1] (setting [3]) came to 2.52 nM; in assay [2] (setting [4]), 13.7 nM.

Turning to `Cc1c(-c2[nH]c3sc([C@@H]4C[C@@H]5C[C@H]4CN5CC(=O)N4CC(O)C4)c(C)c3c2C(C)C)cn2ncnc2c1C` [Example 265, 2-((1S,4R,5R)-5-(5-(7,8-dimethyl-[1,2,4]triazolo[1,5-a]pyridin-6-yl)-4 isopropyl-3-methyl-6H-thieno[2,3-b]pyrrol-2-yl)-2-azabicyclo[2.2.1]heptan-2-yl)-1-(3-hydroxyazetidin-1-yl)ethan-1-one], the EC50 was 0.97 nM in assay [1] (setting [3]) and 0.83 nM in assay [2] (setting [4]).

Take `Cc1c(-c2[nH]c3sc([C@@H]4C[C@@H]5C[C@H]4CN5CC(=O)N(C)CCO)c(C)c3c2C(C)C)cn2ncnc2c1C` [Example 266]: the EC50 in assay [1] (setting [3]) turned out to be 1.27 nM; in assay [2] (setting [4]) it was 0.33 nM.

Take `Cc1c(-c2[nH]c3sc([C@@H]4C[C@@H]5C[C@H]4CN5CC(=O)NCCO)c(C)c3c2C(C)C)cn2ncnc2c1C` [Example 267]: the EC50 in assay [1] (setting [3]) amounted to 0.47 nM; in assay [2] (setting [4]) it was 0.15 nM.
